Experimental data as given in PubChem BioAssay (NCI).
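Five compound concentrations were applied to cells in 96-well plates for 48 hours; endpoints were derived by simple linear interpolation of the resulting dose-response curve. Here, GI50 denotes the concentration required for 50% inhibition of growth. TGI: total growth inhibition.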

Columns and labels:
Test in all cases: growth of human tumour cells (NCI), 48 h
SF-539 CNS = test system: SF-539 CNS
A549 NSCLC = test system: A549 NSCLC
SK-MEL-2 melanoma = test system: SK-MEL-2 melanoma
UACC-62 melanoma = test system: UACC-62 melanoma
SN12C renal = test system: SN12C renal
LOX IMVI melanoma = test system: LOX IMVI melanoma
NCI/ADR-RES ovarian = test system: NCI/ADR-RES ovarian
MDA-MB-435 = test system: MDA-MB-435
HS 578T breast = test system: HS 578T breast
A498 renal = test system: A498 renal

Compound | TGI (SF-539 CNS) [µM] | TGI (A549 NSCLC) [µM] | TGI (SK-MEL-2 melanoma) [µM] | TGI (UACC-62 melanoma) [µM] | TGI (SN12C renal) [µM] | TGI (LOX IMVI melanoma) [µM] | TGI (NCI/ADR-RES ovarian) [µM] | TGI (MDA-MB-435) [µM] | TGI (HS 578T breast) [µM] | TGI (A498 renal) [µM] | GI50 (SF-539 CNS) [µM] | GI50 (A549 NSCLC) [µM] | GI50 (SK-MEL-2 melanoma) [µM] | GI50 (A498 renal) [µM] | GI50 (UACC-62 melanoma) [µM] | GI50 (MDA-MB-435) [µM] | GI50 (SN12C renal) [µM] | GI50 (LOX IMVI melanoma) [µM] | GI50 (HS 578T breast) [µM] | GI50 (NCI/ADR-RES ovarian) [µM]
CC(=O)n1nnc2ccc([N+](=O)[O-])cc21 | > 100 | > 100 | > 100 | > 100 | > 100 | > 100 | – | – | – | – | – | – | – | – | – | – | – | – | – | –
O=C1CC(C(=O)O)Cc2c(Br)ccc(O)c21 (stereo unspecified) | – | > 100 | > 100 | > 100 | > 100 | > 100 | > 100 | > 100 | > 100 | – | – | – | – | – | – | – | – | – | – | –
O=C1c2cccc([N+](=O)[O-])c2C(=O)c2nccnc21 | 2.93 | 3.37 | 2.9 | 2.62 | 3.64 | 2.68 | – | – | – | 17.3 | – | – | – | – | – | – | – | – | – | –
CN(C)CCCOc1ccc(/C=C2/CCC/C(=C/c3ccc(OCCCN(C)C)cc3)C2=O)cc1 | 3.02 | 6.28 | 3.69 | 3.74 | 2.96 | 3.29 | – | – | – | 3.65 | – | – | – | – | – | – | – | – | – | –
Cc1cc(Cl)ccc1NC(=O)CC1SC(=NC(=O)c2ccccc2Cl)NC1=O (stereo unspecified) | 35.4 | > 100 | 71.1 | 71.2 | 33.5 | 38.6 | – | – | – | > 100 | – | – | – | – | – | – | – | – | – | –
CC(C)COC(=O)c1ccc(N=Cc2ccc(C=Nc3ccc(C(=O)OCC(C)C)cc3)cc2)cc1 | > 100 | > 100 | > 100 | > 100 | > 100 | > 100 | – | – | – | – | – | – | – | – | – | – | – | – | – | –
N#CC(C#N)=Cc1ccc(C(O)P(=O)(O)O)cc1 (stereo unspecified) | > 100 | > 100 | > 100 | > 100 | > 100 | > 100 | – | – | – | > 100 | – | – | – | – | – | – | – | – | – | –
Cc1ccc(NC(=O)CCc2nnc3s/c(=C\c4cccc([N+](=O)[O-])c4)c(=O)n23)cc1 | > 100 | > 100 | > 100 | > 100 | > 100 | > 100 | – | – | – | > 100 | – | – | – | – | – | – | – | – | – | –
O=C(Nc1ccccc1)n1cc(-c2ccccn2)c(N2CCOCC2)n1 | 57.6 | > 100 | – | > 100 | > 100 | > 100 | – | – | – | 51.1 | – | – | – | – | – | – | – | – | – | –
CN1CCN(Cc2ccc(NC(=O)c3cncc(C#Cc4c(N)ncc5c(F)cccc45)c3)cc2C(F)(F)F)CC1 | 1.22 | 1.56 | 1.93 | 1.81 | 1.43 | 1.35 | – | 1.24 | 2.18 | 1.55 | 0.593 | 0.794 | 0.809 | 0.763 | 0.845 | 0.597 | 0.743 | 0.646 | 0.812 | –
Cc1ccc(C(=O)C(c2nc3n(c2O)C(=N)N=N3)c2nc3n(c2O)C(=N)N=N3)cc1 (stereo unspecified) | > 100 | > 100 | > 100 | > 100 | > 100 | > 100 | – | – | – | > 100 | – | – | – | – | – | – | – | – | – | –
COC(=O)C(=O)C(C#N)c1cccc(Cl)c1 (stereo unspecified) | > 100 | > 100 | > 100 | > 100 | > 100 | > 100 | – | – | – | > 100 | – | – | – | – | – | – | – | – | – | –
COc1cccc(N2C(=O)/C(=C/c3ccc(N(CCC#N)CCC#N)cc3)N=C2c2cc([N+](=O)[O-])ccc2Cl)c1 | > 100 | – | > 100 | > 100 | > 100 | – | – | – | – | > 100 | – | – | – | – | – | – | – | – | – | –
O=CC1CCC=CC1NC(=O)OCc1ccccc1 (stereo unspecified) | 51.9 | > 100 | > 100 | > 100 | > 100 | > 100 | – | – | – | – | – | – | – | – | – | – | – | – | – | –
O=C(CCC(=O)Nc1ccc(Cl)cc1)CC(=O)c1ccc2ccccc2c1 | > 100 | > 100 | > 100 | > 100 | > 100 | > 100 | – | – | – | > 100 | – | – | – | – | – | – | – | – | – | –
O=c1c2ccccc2nc2n1CCc1c-2[nH]c2cc3c(cc12)OCO3 | > 25 | > 25 | – | – | > 25 | – | > 25 | > 25 | 17.5 | – | – | > 25 | – | – | – | – | – | – | 5.05 | –
CCOC(=O)NC(=O)c1cn(CCCCCCCCCCC(=O)NCCCN2CCN(CCCNC(=O)CCCCCCCCCCn3cc(C(=O)NC(=O)OCC)c(=O)[nH]c3=O)CC2)c(=O)[nH]c1=O | > 100 | > 100 | > 100 | > 100 | > 100 | > 100 | – | – | – | > 100 | – | – | – | – | – | – | – | – | – | –
Cc1cc2c(C(=O)NCC#N)cccc2n1-c1nc2c(c(NCc3ccccc3)n1)CCCC2 | 0.764 | 1.28 | 0.644 | 0.482 | 0.904 | 0.358 | 3.03 | 0.809 | 47.5 | – | 0.249 | 0.312 | 0.231 | – | 0.203 | 0.249 | 0.31 | 0.18 | 0.386 | 0.328
Cc1cc2nc3c(=O)[nH]c(=O)nc-3n(CC(O)C(O)C(O)CO)c2cc1N (stereo unspecified) | > 100 | > 100 | > 100 | > 100 | > 100 | > 100 | – | – | – | > 100 | – | – | – | – | – | – | – | – | – | –
COc1ccc(Cc2cc(OC)c(OC)c(OC)c2)cc1 | 1.76 | > 100 | 41.4 | > 100 | > 89.3 | > 89.7 | > 100 | > 100 | – | 24.6 | – | – | – | – | – | – | – | – | – | –
CN1C(=O)/C(=C2\S/C(=N\c3nnc(-c4ccccc4)o3)NC2=O)c2ccccc21 | > 100 | > 100 | > 100 | > 100 | > 100 | > 100 | > 100 | > 100 | > 100 | – | > 100 | 43.9 | > 100 | – | 79.2 | > 100 | > 100 | 77.9 | > 100 | 84.7
COC1=CC(c2ccc[nH]2)=N/C1=C\c1[nH]c(C)c(C(=O)Oc2ccccc2)c1C | 1.63 | 2.01 | 0.479 | 0.427 | 2.41 | 0.0472 | 1.46 | – | 0.828 | 2.56 | 0.36 | 0.344 | 0.194 | 0.648 | 0.198 | – | 0.387 | 0.0197 | 0.205 | 0.185
